# Measurements as given in patent US20050239753A1, “Methods of inhibition of MMTV-like viruses” (GILEAD SCIENCES, INC., priority 2004, published 2005).
# Assays:
# MMTV RT [1] = target: T1, MMTV RT (Mouse mammary tumor virus, UniProt P03365); assay: MMTV RT activity, filter-based [33P]dNTP incorporation assay on lysed MMTV particles; format: biochemical; set-up: MMTV particles were isolated and concentrated from MM5MT cells (ATCC) after induction with dexamethasone and insulin; host or cells: MM5MT cells (virus-producing mouse mammary tumour line), induced with dexamethasone and insulin; lysed virions; settings: for potency against MMTV RT relative to 3TCppp: more potent than 3TCppp
# Description: MMTV particles were isolated and concentrated from MM5MT cells (ATCC) after induction with dexamethasone and insulin as previously described (Fine, D., et al., In Vitro 12:693-701, 1976). Lysed particles were assayed for RT activity using a standard filter-based, [^33P]dNTP incorporation assay (modified from Wu, J., et al., J. Biol. Chem. 268:9980-9985, 1993). Inhibition of the RT activity was measured by adding the test compounds, the acyclic nucleoside diphosphophosphonates and cyclic nucleoside triphosphates, at various concentrations and 50% inhibitory concentrations (IC50) were calculated for each compound. All compounds tested were active against the MMTV RT. […] The activity of AZTppp against the MMTV RT as previously observed was confirmed with an IC50 value of 0.4 μM.
# MMTV RT [2] = target: T1, MMTV RT; settings: cited from earlier work
# T1 sequence (P03365 861-1436): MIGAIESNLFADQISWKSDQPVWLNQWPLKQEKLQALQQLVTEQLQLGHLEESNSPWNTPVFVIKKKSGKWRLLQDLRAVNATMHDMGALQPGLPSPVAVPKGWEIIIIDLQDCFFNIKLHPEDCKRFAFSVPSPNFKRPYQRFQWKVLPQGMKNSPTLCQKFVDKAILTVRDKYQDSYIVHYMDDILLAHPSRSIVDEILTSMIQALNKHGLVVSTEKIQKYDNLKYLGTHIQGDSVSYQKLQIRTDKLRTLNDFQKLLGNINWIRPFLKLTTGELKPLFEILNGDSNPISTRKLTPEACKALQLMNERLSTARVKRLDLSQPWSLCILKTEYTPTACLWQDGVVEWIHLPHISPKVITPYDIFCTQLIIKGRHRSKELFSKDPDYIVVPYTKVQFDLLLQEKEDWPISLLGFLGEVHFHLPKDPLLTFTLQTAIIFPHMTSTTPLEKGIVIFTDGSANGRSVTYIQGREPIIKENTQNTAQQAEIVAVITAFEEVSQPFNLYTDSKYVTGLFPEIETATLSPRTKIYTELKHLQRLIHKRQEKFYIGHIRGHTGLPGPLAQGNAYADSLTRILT
Structure (SMILES),IC50 (MMTV RT [1]),direct inhibition of the MMTV RT enzyme compared with HIV RT enzyme (MMTV RT [2]),activity against the MMTV RT (MMTV RT [1]),potency against MMTV RT relative to 3TCppp (MMTV RT [1])
"Nc1ccn([C@@H]2CS[C@H](COP(=O)(O)OP(=O)(O)OP(=O)(O)O)O2)c(=O)n1 [3TCppp, reference compound]",108 µM,–,–,–
"Cc1cn([C@H]2C[C@H](N=[N+]=[N-])[C@@H](COP(=O)(O)OP(=O)(O)OP(=O)(O)O)O2)c(=O)[nH]c1=O [AZTppp, reference compound]",0.4 µM,as efficiently as the HIV RT enzyme,–,–
"Nc1nc(=O)n([C@@H]2CS[C@H](COP(=O)(O)OP(=O)(O)OP(=O)(O)O)O2)cc1F [FTCppp, reference compound]",44 µM,–,–,–
Nc1ncnc2c1ncn2CCOCP(=O)(O)OP(=O)(O)OP(=O)(O)O [PMEApp],~4 µM,–,active,25 fold
C[C@H](Cn1cnc2c(N)ncnc21)OCP(=O)(O)OP(=O)(O)OP(=O)(O)O [PMPApp],~4 µM,–,active,25 fold
